# According to patent publication US12180523B2, “Southern green stink bug pheromone synthesis enzymes and uses thereof” (VIRGINIA TECH INTELLECTUAL PROPERTIES, INC., priority 2018, dated 2024):
# Columns and labels:
# [1] = target: NvIDS1 (NvTPS) (Nezara viridula, UniProt A0A386JV86); conditions: IPP and DMAPP as substrates
# Description: Full-length NvTPS (NvIDS1) cDNA was cloned into the pEXP5-NT/TOPO (Invitrogen) expression vector as described above and transformed into E. coli BL21(DE3)pLysS cells. Single colonies were selected at 18° C. on LB with ampicillin (100 μg/ml) and chloramphenicol (34 μg/ml). Expression cultures (200 ml of the same medium) were started from 5 ml overnight cultures and incubated at 18° C. for 4-8h. Following induction at an OD600 of 0.50 with 0.5 mM IPTG, cells were cultivated for another 48 h, then washed in 100 ml wash buffer (20 mM Tris-HCl, 50 mM KCl, pH 7), pelleted, and resuspended in 15 ml cell lysis buffer (50 mM NaH2PO4, 300 mM NaCl, 5 mM imidazole, 0.5 mM PMSF, 2 mM DTT, pH 8). Upon sonication for 2×30 s (on ice, 1 min interval, 20% amplitude, Branson Digital Sonifier), the recombinant protein was purified with Ni-NTA agarose (Qiagen) using three washes of 30 mM imidazole and elution as a 1 ml fraction with 250 mM imidazole. Buffer exchange into TPS assay buffer (25 mM HEPES, 10 mMMgCl2,10% glycerol, pH 7) was performed on PD MiniTrap G-25 desalting columns (GE Healthcare Life Sciences).
# (§1) IDS Activity Assay and Analysis. […] Upon incubation at 30° C. for 2 h, IDS enzyme products were analyzed on an Agilent 1260 HPLC system (Agilent Technologies) coupled to an API 5000 triple-quadrupole mass spectrometer (AB Sciex Instruments) following the protocol described by Beran et al. 2016.
# [2] = target: recombinant NvIDS2 (NvFPPS) (Nezara viridula, UniProt A0A386JVA3); conditions: 50 μM IPP and 50 μM DMAPP, 30° C., 2 h, LC-MS
# Description: In preparation for enzyme assays, a buffer exchange to 25 mM 3-(N-morpholino)-2-hydroxypropanesulfonic acid (MOPSO, pH 7.2, 10% [v/v] glycerol, 1 mM DTT, 5 mM MgCl2) was conducted on PD-10 Desalting Columns (GE Healthcare Life Sciences, Pittsburgh, PA).
# as §1
# [3] = target: T1, recombinant NvIDS1 (NvTPS) protein (Nezara viridula, UniProt A0A386JV86); experiment: TPS activity assay of purified recombinant NvTPS, products by GC-MS; format: biochemical, N. viridula; conditions: 50 μM allylic substrate, 30° C., 1 h
# T1 construct: Full-length NvTPS (NvIDS1) cDNA was cloned into the pEXP5-NT/TOPO (Invitrogen) expression vector; His tag (N-terminal histidine fusion tag from pEXP5-NT/TOPO) (N); made in house; host or cells: E. coli BL21(DE3)pLysS
# T1 sequence (A0A386JV86 1-378): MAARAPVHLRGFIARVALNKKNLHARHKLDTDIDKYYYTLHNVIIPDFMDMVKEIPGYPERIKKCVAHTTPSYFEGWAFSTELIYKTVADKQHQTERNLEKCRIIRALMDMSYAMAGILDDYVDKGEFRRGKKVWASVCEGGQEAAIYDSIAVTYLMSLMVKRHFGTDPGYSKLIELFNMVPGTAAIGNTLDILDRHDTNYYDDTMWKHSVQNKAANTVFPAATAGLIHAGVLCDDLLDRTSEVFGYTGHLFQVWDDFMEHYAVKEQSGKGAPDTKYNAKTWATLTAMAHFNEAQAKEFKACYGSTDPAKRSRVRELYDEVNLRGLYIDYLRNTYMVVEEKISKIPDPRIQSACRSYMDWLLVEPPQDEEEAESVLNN
# Description: Heterologous Expression of Recombinant NvTPS.
# TPS activity of purified, recombinant NvTPS protein was determined in assay buffer (see above) with 1 mM DTT and 50 μM allylic substrate [(E,E)-, (Z,E)- or (Z,Z)-FPP] in a total volume of 100 μl and with a100 μl hexane overlay. Upon incubation at 30° C. for 1 h, assays were stopped on ice and compounds extracted by mixing using a vortex at maximum speed for 15 s. Phases were separated by centrifuging at 4000×g for 10 min and the hexane phase was removed and dried over MgSO4. One μL of the hexane extract was analyzed by GC-MS.
# Gas Chromatography-Mass Spectrometry Analysis and Determination of Absolute Configuration of NvTPS Products. GC-MS analysis of hexane extracts from assays with crude protein lysates or NvTPS recombinant protein was performed using split injection (5:1 ratio) at an injection temperature of 240° C. Compounds were separated on a GC-2010 gas chromatograph (Shimadzu, Kyoto, Japan) with a 30 m×0.25 mm i.d.×0.25 μm film Zebron ZB-XLB column (Phenomenex, Torrance, CA) coupled to a QP2010S mass spectrometer (Shimadzu). Separation steps were as follows: initial 2 min hold at 40° C., followed by a 5° C./min ramp to 220° C., then a 70° C./min ramp to 240° C. followed by a 2 min hold time at 240° C. Mass spectrometry was performed with a 240° C. ion source temperature, 280° C. interface temperature, electron ionization (El) potential of 70 eV, and scan range of 50 to 400 amu. Helium was used as a carrier gas at 1.9 ml/min.
# [4] = target: T2, NvTPS (Nezara viridula, UniProt A0A386JV86); experiment: Kinetic analysis of NvTPS with [1-3H]-(E,E)-FPP; format: biochemical, N. viridula; conditions: (E,E)-FPP as the substrate
# T2 construct: Full-length NvTPS (NvIDS1) cDNA was cloned into the pEXP5-NT/TOPO (Invitrogen) expression vector; His tag (N-terminal histidine fusion tag from pEXP5-NT/TOPO) (N); made in house; host or cells: E. coli BL21(DE3)pLysS
# T2 sequence (A0A386JV86 1-378): T1 sequence (A0A386JV86 1-378)
# Description: To determine the apparent Km value of NvTPS for (E,E)-FPP, […] of recombinant protein was incubated with increasing concentrations of [1-3H]-(E,E)-FPP (64 ρCi mmol-1) in a total volume of […]. Assays were incubated at 30° C. for 5 min prior to extraction of the enzyme product with 250 μl hexane. Assays were performed in triplicate. Quantification of the radioactive product was as described by Tholl et al. (2005. Plant. J. 42:757-771). The Km value was calculated by rectangular hyperbolic regression analysis using Hyperbolic Regression Analysis software (HYPER 1.01) (J. S. Easterby, University of Liverpool).
# [5] = system: crude protein extracts from tissue associated with the ventral sternites of N. viridula; experiment: Terpene synthase activity in crude protein extracts of abdominal cuticle tissue; format: biochemical; conditions: 50 μM (E,E)-FPP, 12 h, 30° C.
# Description: Crude Protein Extracts of N. viridula. Abdominal cuticles from one mature (14-15 days post molt) adult male and female N. viridula were used for crude protein assays. Insects were fixed with hexane vapor in a screw top jar and dissected in phosphate buffered saline (PBS) (137 mM NaCl, 8.1 mM Na2HPO4, 1.5 mM NaH2PO4, 2.7 mM KCl, pH 7.2). Head, thorax and abdominal soft tissues were removed except for epithelial cells lining the cuticle. Abdominal cuticles were then frozen in liquid nitrogen, pulverized with a mortar and pestle, and suspended in assay buffer (25 mM HEPES, 5 mM MgCl2, 10% glycerol, 1 mM DTT, pH 7). Protein concentrations were determined with a Bradford Assay (Bio-Rad, Hercules, CA) according to the manufacturer's protocol resulting in a protein concentration of 1.2 μg/μl and 0.8 μg/μl for female and male tissue, respectively.
# TPS Activity Assay. To determine terpene synthase activity in crude protein extracts of male and female abdominal cuticle tissue, 50 μM (E,E)-FPP was added to protein extracts in assay buffer (see above) containing 50 µg protein at a final volume of 200 μl and with a 200 μl hexane overlay to collect volatiles. Following incubation for 12 h at 30° C., enzyme products were extracted by mixing for 15 s using a vortex and phases were separated by centrifuging at 4000×g for 10 min. One μl of the hexane extract was analyzed by GC-MS. […]
# [6] = system: crude protein extract from whole male and female bugs; experiment: Enzyme activity in crude protein extract from whole bugs; format: biochemical, N. viridula; conditions: supernatant of homogenized male and female bugs incubated with (E,E)-FPP
# Description: Enzyme Activity in Crude Protein Assay. Enzyme activity was measured in crude protein extract from whole male and female bugs to determine possible products from enzymes that accept (E,E)-FPP. The supernatant from homogenized bugs was incubated with the substrate and analyzed products extracted by hexane using GC-MS. […] Also, several sesquiterpenes were found in low abundance that were not found in assays of partially purified NvTPS.
# Chain of recombinant NvIDS2 (NvFPPS) (A0A386JVA3 whole entry): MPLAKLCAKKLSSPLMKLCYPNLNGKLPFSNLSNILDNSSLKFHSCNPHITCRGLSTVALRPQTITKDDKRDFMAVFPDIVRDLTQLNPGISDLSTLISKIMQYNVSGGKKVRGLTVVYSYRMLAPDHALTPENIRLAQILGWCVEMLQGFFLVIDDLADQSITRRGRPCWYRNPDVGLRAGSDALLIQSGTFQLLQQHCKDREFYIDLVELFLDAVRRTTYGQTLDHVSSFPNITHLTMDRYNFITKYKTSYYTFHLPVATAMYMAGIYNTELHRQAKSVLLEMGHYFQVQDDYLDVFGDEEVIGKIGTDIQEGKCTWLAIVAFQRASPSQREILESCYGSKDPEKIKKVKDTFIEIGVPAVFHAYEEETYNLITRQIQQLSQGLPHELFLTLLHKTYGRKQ
compound,measurement,setting,value
isopentenyl diphosphate [IPP],IDS activity of NvIDS1,[1],no activity was observed
same,IDS product of NvIDS2,[2],"(E,E)-FPP as the sole product"
"CC(C)=CCC/C(C)=C\CC/C(C)=C\COP(=O)(O)OP(=O)(O)O [(Z,Z)-FPP]",enzymatic products of NvIDS1 (TPS activity),[3],No enzymatic products were detected
"CC(C)=CCC/C(C)=C/CC/C(C)=C/COP(=O)(O)OP(=O)(O)O [(E,E)-FPP, (E,E)-farnesyl diphosphate]",enzymatic products of NvIDS1 (TPS activity),[3],(Z)-α-bisabolene as the main product
same,Vmax,[4],11.83±2.14 pkat/mg
same,Km,"[4]; 30° C., 5 min, triplicate, read-out: apparent Km value",0.95 ± 0.37 µM
same,"TPS activity in crude protein extract, products by GC-MS",[5]; extracts from mature females,only little activity
same,"TPS activity in crude protein extract, products by GC-MS",[5]; extracts from mature males,formation of (Z)-α-bisabolene
same,"products in crude protein extract from whole bugs, GC-MS",[6],(Z)-α-bisabolene present in crude protein from males but not females
"CC(C)=CCC/C(C)=C/CC/C(C)=C\COP(=O)(O)OP(=O)(O)O [(Z,E)-FPP]",enzymatic products of NvIDS1 (TPS activity),[3],No enzymatic products were detected
